Results taken from PubChem BioAssay (NCI).
Where “and” joins values, the source holds several entries; their conditions need not be identical. Equal values may be shown once.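 Each compound was tested at five concentrations against cells in 96-well plates for 48 hours. The concentration for 50% growth inhibition is given as GI50. TGI is the concentration that stops growth completely.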

What was measured:
Assay in all cases: inhibition of tumour cell growth, NCI panel, 48 h
OVCAR-4 ovarian = test system: OVCAR-4 ovarian
K-562 leukemia = test system: K-562 leukemia
SN12C renal = test system: SN12C renal
RXF 393 renal = test system: RXF 393 renal
SW-620 colon = test system: SW-620 colon
HL-60(TB) leukemia = test system: HL-60(TB) leukemia
HCT-15 colon = test system: HCT-15 colon
DU-145 prostate = test system: DU-145 prostate
HCT-116 colon = test system: HCT-116 colon
UACC-257 melanoma = test system: UACC-257 melanoma

Structure (SMILES)	TGI (OVCAR-4 ovarian)	TGI (K-562 leukemia) [µM]	TGI (SN12C renal)	TGI (RXF 393 renal)	TGI (SW-620 colon)	TGI (HL-60(TB) leukemia)	TGI (HCT-15 colon)	TGI (DU-145 prostate)	TGI (HCT-116 colon)	TGI (UACC-257 melanoma)	GI50 (OVCAR-4 ovarian) [µM]	GI50 (K-562 leukemia) [µM]	GI50 (SN12C renal) [µM]	GI50 (RXF 393 renal) [µM]	GI50 (SW-620 colon) [µM]	GI50 (HL-60(TB) leukemia) [µM]	GI50 (HCT-15 colon) [µM]	GI50 (DU-145 prostate) [µM]	GI50 (HCT-116 colon) [µM]	GI50 (UACC-257 melanoma) [µM]
CN1c2ccccc2S(=O)(=O)n2c(COc3ccccc3)nnc21	> 100 µM	> 100	> 100 µM	> 100 µM	> 100 µM	> 100 µM	> 100 µM	> 100 µM	> 100 µM	> 100 µM										
O=C(NCCCl)NCc1ccccc1	> 100 µM	> 100	> 100 µM	> 100 µM	> 100 µM	> 100 µM	> 100 µM	> 100 µM	> 100 µM	> 100 µM										
CNC(=O)c1cc(Oc2ccc3nc(NC(=O)Nc4cc(C(F)(F)F)cc(C(F)(F)F)c4)sc3c2)ccn1	2.73 µM	4.86	3.79 µM	2.99 µM	3.29 µM	4.17 µM	3.31 µM	2.98 µM	2.46 µM	2.62 µM	0.958	0.784	1.64	1.25	1.56	1.6	1.5	1.25	1.12	1.15
Cc1ccnc(NC(c2ccccc2)c2ccc3cccnc3c2O)c1 (stereo not given)	27.1 µM	> 100	> 100 µM	> 100 µM	15.6 µM	5.4 µM	> 100 µM	> 100 µM	14.5 µM	9.9 µM	3.2	3.27	5.27	7.93	3.86	1.7	3.35	4.9	2.94	2.62
NCCCCCCCCCn1c2c(c3ccccc3c1=O)C(=O)c1ccccc1-2	25.9 µM	32.3	18.4 µM	24.3 µM	15.6 µM	19.8 µM	16.2 µM	15.9 µM	17.2 µM	22.7 µM	10.3	7.42	8.48	10.2	6.11	7.97	6.03	5.98	6.5	10.1
COc1c(OC)c(OC)c(-c2cc(=O)c3c(OC)c(OC)c(OC)c(OC)c3o2)c(OC)c1OC	33.7 µM	> 100	> 100 µM	81.2 µM	> 100 µM	> 100 µM	> 100 µM	> 100 µM	44.9 µM	> 100 µM										
COc1ccc(/C=C/C(=O)c2ccccc2)cc1OC	36.6 µM and 33.3 µM	> 100	30.6 µM and 29 µM	48.2 µM and 27.6 µM	> 100 µM and 18.4 µM	61.2 µM and > 100 µM	34.9 µM and 24.8 µM	24.4 µM and 26.4 µM	20.2 µM and 14.2 µM	31.7 µM and 31.4 µM		3.95	13.1			14.6	5.23		3.51	
[Au+].c1c[n-]cn1.c1ccc([PH+](c2ccccc2)c2ccccc2)cc1	36.7 µM	30.4	27.4 µM	2.66 µM	3.28 µM	4.81 µM	15.8 µM	36.5 µM	14.6 µM	15.8 µM	13.4	2.61	10.3	1.3	1.81	1.66	3.42	17.2	5.19	5.04
